Measurements from US5066585A, “Method of inhibiting fungus using novel antifungal compounds” (priority 1990, dated 1991).
≈ marks a conversion by molar mass, not a printed value. Like-named read-outs stand apart in the source and are kept apart here.

Tests used:
murine tumors = conditions: more active than adriamycin; cited from earlier work
C. quilliermondii = experiment: MIC against C. quilliermondii, broth dilution; type: cell-based; conditions: fungus, ca 10,000 CFU, liquid Emmons medium, DMSO solution
Experimental: (§1) Known amounts of the purified substance were dissolved in DMSO and serial dilutions prepared in the same solvent. A 20 ul volume of each dilution was placed on the surface of Emmon's agar in petri-dishes seeded with various test strains of pathogenic and saprophytic fungi. The antibacterial activity was monitored using Muller-Hilton agar. The minimum inhibitory concentration (MIC) was determined by incorporating known amount of the DMSO dissolved purified substance into Emmon's liquid medium (same as stated earlier but devoid of agar) contained in test tubes. The tubes were inoculated with ca 2×10^3 CFU of the test organisms. The inoculated tubes were incubated at 26° C. and the results recorded after two to 5 days' depending upon the growth pattern of the test organisms (certain fungi grow faster than others). Tubes inoculated in an identical manner but devoid of the active substance served as controls.
(§2) Minimum inhibitory concentration of Spartanamycin-B against certain bacteria and fungi. (The substance was dissolved in DMSO, 20 ul of the solution was mixed with two ml of liquid Emmons medium containing ca 10,000 Colony forming Units of fungal test strains or 100,000 CFU's of bacterial test strains).

[1] = stability on standing in 2N HCl; type: physicochemical; conditions: upon standing in 2N HCl
S. aureus ATCC 25923 = experiment: MIC against S. aureus ATCC 25923; type: cell-based; conditions: bacterial strain, 100,000 CFU
Experimental: as §1, §2

Penicillium species = experiment: MIC against Penicillium species, broth dilution; type: cell-based; conditions: fungus, ca 10,000 CFU, liquid Emmons medium, DMSO solution
Experimental: as §1, §2

Escherichia coli = experiment: MIC against Escherichia coli; type: cell-based; conditions: bacterial strain, 100,000 CFU
Experimental: as §1, §2

Citrobacter species = experiment: MIC against Citrobacter species; type: cell-based; conditions: bacterial strain, 100,000 CFU
Experimental: as §1, §2

A. flavus = experiment: MIC against A. flavus, broth dilution; type: cell-based; conditions: fungus, ca 10,000 CFU, liquid Emmons medium, DMSO solution
Experimental: as §1, §2

Candida albicans = experiment: MIC against Candida albicans, broth dilution; type: cell-based; conditions: fungus, ca 10,000 CFU, liquid Emmons medium, DMSO solution
Experimental: as §1, §2

[2] = test system: Candida albicans, Aspergillus fumigatus, and Cladosporium spp. fungi; experiment: TLC bioassay for the detection of the biological activity; type: cell-based; conditions: bands at Rf 0.48 and 0.72, CHCl3-MeOH 16:1
Experimental: The crude extract obtained from the mycelium was spotted on a TLC plate (5×20, […]) and developed (CHCl3 -MeOH, 16:1 v/v). The plate was then marked under UV and visible light for individual spots or regions. The spores of the agar slant culture of the test organism was suspended in 10 ml of sterile physiological saline. The growth medium containing agar was then shaken well with 50 ul of the above suspension (35-40° C.) and poured over the developed TLC plate uniformly and allowed to set. The plates were then placed in a moist chamber and incubated at 26° C. for 24 to 72 hours and the zone of inhibition was recorded for the respective spots of the plate. The test organisms were Candida albicans, Aspergillus fumigatus, and Cladosporium spp. fungi and the growth medium was potato dextrose agar (PDA, 39 g/l).

Cladosporium species = experiment: MIC against Cladosporium species, broth dilution; type: cell-based; conditions: fungus, ca 10,000 CFU, liquid Emmons medium, DMSO solution
Experimental: as §1, §2

Aspergillus fumigatus = experiment: MIC against Aspergillus fumigatus, broth dilution; type: cell-based; conditions: fungus, ca 10,000 CFU, liquid Emmons medium, DMSO solution
Experimental: as §1, §2

Solubility = type: physicochemical
Plebsiella pneumoniae = experiment: MIC against Plebsiella pneumoniae; type: cell-based; conditions: bacterial strain, 100,000 CFU
Experimental: as §1, §2

C. neoformans serotype-D = experiment: MIC against C. neoformans serotype-D, broth dilution; type: cell-based; conditions: ca 10,000 CFU, liquid Emmons medium
Experimental: as §1, §2

[3] = test system: S. aureus (multiple drug resistant); experiment: MIC against S. aureus (multiple drug resistant); type: cell-based; conditions: bacterial strain, 100,000 CFU
Experimental: as §1, §2

A. niger = experiment: MIC against A. niger, broth dilution; type: cell-based; conditions: fungus, ca 10,000 CFU, liquid Emmons medium, DMSO solution
Experimental: as §1, §2

Rhodotorula rubra = experiment: MIC against Rhodotorula rubra, broth dilution; type: cell-based; conditions: fungus, ca 10,000 CFU, liquid Emmons medium
Experimental: as §1, §2

C. neoformans-G-3 = experiment: MIC against C. neoformans-G-3, broth dilution; type: cell-based; conditions: G = nonencapsulated, drypasty, highly virulent strain, ca 10,000 CFU
Experimental: as §1, §2

C. neoformans serotype-C = experiment: MIC against C. neoformans serotype-C, broth dilution; type: cell-based; conditions: ca 10,000 CFU, liquid Emmons medium
Experimental: as §1, §2

[4] = test system: Cryptococcus neoformans-N-2; experiment: MIC against Cryptococcus neoformans-N-2, broth dilution; type: cell-based; conditions: N = encapsulated, mucoid strain with neurotropic tendencies, ca 10,000 CFU
Experimental: as §1, §2

R. glutinis = experiment: MIC against R. glutinis, broth dilution; type: cell-based; conditions: fungus, ca 10,000 CFU, liquid Emmons medium
Experimental: as §1, §2

C. neoformans-N-3 = experiment: MIC against C. neoformans-N-3, broth dilution; type: cell-based; conditions: N = encapsulated, mucoid strain with neurotropic tendencies, ca 10,000 CFU
Experimental: as §1, §2

[5] = test system: Staphylococcus aureus ATCC 29213; experiment: MIC against Staphylococcus aureus ATCC 29213; type: cell-based; conditions: bacterial strain, 100,000 CFU
Experimental: as §1, §2

Pseudomonas aeruginosa = experiment: MIC against Pseudomonas aeruginosa; type: cell-based; conditions: bacterial strain, 100,000 CFU
Experimental: as §1, §2

[6] = comparison compounds; cited from earlier work
fungi = conditions: comparison compounds from Streptomyces; cited from earlier work
[7] = hexane, cyclohexane, water and 2N HCl

For CCN[C@H]1CO[C@@H](O[C@H]2[C@H](O[C@H]3C#C/C=C\C#C[C@]4(O)CC(=O)C(NC(=O)OC)=C3/C4=C\CSSSC)O[C@H](C)[C@@H](NO[C@H]3C[C@H](O)[C@H](SC(=O)c4c(C)c(I)c(O[C@@H]5O[C@@H](C)[C@H](O)[C@@H](OC)[C@H]5O)c(OC)c4OC)[C@@H](C)O3)[C@@H]2O)C[C@@H]1OC [Calicheamicin], the “activity relative to adriamycin against murine tumors” value (murine tumors) is given as “approximately 1000 fold”.
In the case of CC[C@@]1(O)C[C@H](O[C@H]2C[C@H](N(C)C)[C@H](O[C@H]3C[C@H](O)[C@H](O[C@H]4CCC(=O)[C@H](C)O4)[C@H](C)O3)[C@H](C)O2)c2c(cc3c(c2O)C(=O)c2c(O)ccc(O)c2C3=O)[C@H]1C(=O)OC [Spartanamicin B], the MIC (C. quilliermondii) is reported as 0.8 µg/mL (≈ 0.966 µM), the “stability in 2N HCl” value [1] is reported as “hydrolyses” and the MIC (S. aureus ATCC 25923) is reported as 0.8 µg/mL (≈ 0.966 µM). The MIC (Penicillium species) was 0.2 µg/mL (≈ 0.242 µM), the MIC (Escherichia coli) was “not active” and the MIC (Citrobacter species) was “not active”. For the same molecule, the MIC (A. flavus) was 0.6 µg/mL (≈ 0.725 µM), the MIC (Candida albicans) was 0.2 µg/mL (≈ 0.242 µM) and the “biological activity of TLC band” value [2] was “biologically active”. The MIC (Cladosporium species) was 0.4 µg/mL (≈ 0.483 µM), the MIC (Aspergillus fumigatus) was 0.4 µg/mL (≈ 0.483 µM) and the Solubility (Solubility; 1-butanol, ethanol, methanol, acetonitrile) was “Sparingly soluble”. For the same molecule, the Solubility (Solubility; chloroform, carbon tetrachloride, toluene, ethyl acetate, DMF, DMSO, acetone and glacial acetic acid) was “Soluble”, the Solubility (Solubility; [7]) was “Insoluble” and the “solubility in methanol and ethanol” value (Solubility) was “not soluble”. The MIC (Plebsiella pneumoniae) was 100 µg/mL (≈ 121 µM), the MIC (C. neoformans serotype-D) was 0.8 µg/mL (≈ 0.966 µM) and the MIC [3] was “not active”. For the same molecule, the MIC (A. niger) was 0.6 µg/mL (≈ 0.725 µM), the MIC (Rhodotorula rubra) was 0.8 µg/mL (≈ 0.966 µM) and the MIC (C. neoformans-G-3) was 1.0 µg/mL (≈ 1.21 µM). For the same molecule, the MIC (C. neoformans serotype-C) was 0.8 µg/mL (≈ 0.966 µM), the MIC [4] was 0.8 µg/mL (≈ 0.966 µM) and the MIC (R. glutinis) was 0.4 µg/mL (≈ 0.483 µM). It also gave an MIC (C. neoformans-N-3) of 0.6 µg/mL (≈ 0.725 µM), an MIC [5] of 0.8 µg/mL (≈ 0.966 µM) and an MIC (Pseudomonas aeruginosa) of 100 µg/mL (≈ 121 µM).
For CCC1(O)CC(OC2CC(N(C)C)C(OC3CC4OC5CC(=O)C(C)OC5OC4C(C)O3)C(C)O2)c2c(cc3c(c2O)C(=O)c2c(O)ccc(O)c2C3=O)C1C(=O)OC (stereo not shown) [cinerubin B], the “solubility in methanol and ethanol” value [6] is given as “soluble” and the antifungal properties (fungi) is given as “not significantly antifungal”.
For CCC1(O)CC(OC2CC(N(C)C)C(OC3CC(O)C(OC4CCC(=O)C(C)O4)C(C)O3)C(C)O2)c2c(cc3c(c2O)C(=O)c2c(O)ccc(O)c2C3=O)C1C(=O)OC (stereo not shown) [cinerubin A], the “solubility in methanol and ethanol” value [6] is listed as “soluble” and the antifungal properties (fungi) is listed as “not significantly antifungal”.
With CCC1(O)CC(OC2CC(N(C)C)C(OC3CC4OC5CC(=O)C(C)OC5OC4C(C)O3)C(C)O2)c2c(cc3c(c2O)C(=O)c2c(O)ccc(O)c2C3=O)C1C(=O)OC (stereo not shown) [Spartanamicin A] the “biological activity of TLC band” value [2] was “biologically active”, the Solubility (Solubility; 1-butanol, ethanol, methanol) was “Sparingly soluble” and the Solubility (Solubility; chloroform, carbon tetrachloride, toluene, ethyl acetate, DMF, DMSO, acetonitrile, acetone and glacial acetic acid) was “Soluble”. The Solubility (Solubility; [7]) was “Insoluble” and the “solubility in methanol and ethanol” value (Solubility) was “not soluble”.
